Measurements from patent US7572773B2, “Single dose fast dissolving azithromycin” (Pliva Hrvatska D.O.O., priority 2003, dated 2009).
Blank lines part the entries; values can stand above or below the compound they belong to.

What was measured:
[1] = In vivo rat pharmacokinetic study, plasma and whole blood concentration time curves after p.o. administration; details: rats, 50 mg/kg suspension; for ΔIa/dihydrate, Cmax / ΔIa/dihydrate, AUC(0-12): Ia relative to dihydrate; for ΔIa/dihydrate, AUC(0-12): monohydrate, 50 mg/kg
From the text: 32 animals (Wistar Han rats, fasted) were studied using a cross-over experimental design experiment. A non-compartmental analysis was used to determine the concentrations of the respective materials in whole blood and plasma as a function of time.

[2] = Comparative dissolution profiles of azithromycin monohydrate Ia vs. dihydrate, USP Method 2; assay type: physicochemical; details: pH 1.2, 3.0, 6.0 and 6.8, 37° C., 900 ml buffer, 100 rpm, FIGS. 1-4
Procedure: In order to compare the behavior in vitro of the fast dissolving azithromycin monohydrate (Formula Ia) with the commercial azithromycin dihydrate product, dissolution profiles have been determined at pH 1.2, pH 3.0, pH 6.0, and pH 6.8, at 37° C. The comparative dissolution profiles were determined in 900 ml buffer solution, at 100 rpm, by USP Method 2, PharmaTest Dissolution Tester, PTW SII; the content of dissolved azithromycin was measured by HPLC. The data thus obtained are plotted in FIGS. 1-4, respectively.

[3] = Analysis of adverse events observed during human PK study; assay type: in vivo
[4] = Human pharmacokinetic study, plasma concentration after GI site-specific administration of aqueous suspension; details: 500 mg aqueous suspension; for ΔIa/dihydrate, AUC / ΔIa/dihydrate, Cmax: Ia relative to dihydrate
Procedure: (§1) The test was an open, mono-centric, fasted human study. 6 human subjects were studied using a full cross-over experimental design experiment. […] This crossover experiment was repeated a total of three times by intubations of the test subjects: the first involved GI site-specific administration to the stomach, the second involved GI site-specific administration to the duodenum, and the third involved GI site-specific administration to the jejunum.
(§2) The kinetics parameters were determined model-independently and the parameters were determined directly from the measured concentrations.

[5] = Comparative dissolution profiles of azithromycin polymorph Ik vs. dihydrate, USP Method 2; assay type: physicochemical; details: for percent dissolved: pH 6 (37° C.), USP Method 2
Procedure: In order to compare the behavior in vitro of the fast dissolving azithromycin polymorph (Formula Ik) with the commercial azithromycin dihydrate product, dissolution profiles have been determined at pH 6.0 at 37° C. The comparative dissolution profiles were determined by USP Method 2, PharmaTest Dissolution Tester, PTW SII; the content of dissolved azithromycin was measured by HPLC.

clinical = details: human, in vivo, 500 mg
Procedure: as §1, §2

[6] = site-specific administration to duodenum
[7] = site-specific administration to jejunum
[8] = site-specific administration to stomach

- AUC(0-12) ([1]; plasma): 5148 nghr/ml
- Cmax ([1]; plasma): 1006 ng/mL
- ΔIa/dihydrate, Cmax ([1]; plasma): +37%
- ΔIa/dihydrate, AUC(0-12) ([1]; plasma, listed as azithromycin monohydrate Ia): ~29%
- ΔIa/dihydrate, AUC(0-12) ([1]; plasma): +29%
- AUC(0-12) ([1]; whole blood): 21204 nghr/ml
- Cmax ([1]; whole blood): 5061 ng/mL
- ΔIa/dihydrate, Cmax ([1]; whole blood): +97%
- ΔIa/dihydrate, AUC(0-12) ([1]; whole blood, listed as azithromycin monohydrate Ia): approximately 27%
- ΔIa/dihydrate, AUC(0-12) ([1]; whole blood): +27%
- dissolution profile compared to commercially available azithromycin dihydrate [2]: dissolves faster
- ΔIa/dihydrate, AUC ([4]; duodenum): −13%
- ΔIa/dihydrate, Cmax ([4]; duodenum): +10%
- ΔIa/dihydrate, AUC ([4]; jejunum): +98%
- ΔIa/dihydrate, Cmax ([4]; jejunum): +60%
- AUC [4, 6]: 719 nghr/ml
- Cmax [4, 6]: 129 ng/mL
- AUC [4, 7]: 836 nghr/ml
- Cmax [4, 7]: 99 ng/mL
- AUC [4, 8]: 813 nghr/ml
- Cmax [4, 8]: 143 ng/mL
- ΔIa/dihydrate, AUC ([4]; stomach): +19%
- ΔIa/dihydrate, Cmax ([4]; stomach): +52%
Compound: CC[C@H]1OC(=O)[C@H](C)[C@@H](O[C@H]2C[C@@](C)(OC)[C@@H](O)[C@H](C)O2)[C@H](C)[C@@H](O[C@@H]2O[C@H](C)C[C@H](N(C)C)[C@H]2O)[C@](C)(O)C[C@@H](C)CN(C)[C@H](C)[C@@H](O)[C@]1(C)O.O [azithromycin monohydrate]
- incidence of adverse effects compared to azithromycin dihydrate product ([3]; human PK study, single dose administration of a comparable amount): lower incidence of adverse effects

- percent dissolved ([5]; 5 minutes): 99.8%
- percent dissolved ([5]; 10 minutes): 99.9%
- percent dissolved ([5]; 20 minutes): 97.1%
- percent dissolved ([5]; 45 minutes): 97.6%
- dissolution profile compared to commercially available azithromycin dihydrate ([5]; pH 6.0, 37° C.): dissolves faster
Compound: CC[C@H]1OC(=O)[C@H](C)[C@@H](O[C@H]2C[C@@](C)(OC)[C@@H](O)[C@H](C)O2)[C@H](C)[C@@H](O[C@@H]2O[C@H](C)C[C@H](N(C)C)[C@H]2O)[C@](C)(O)C[C@@H](C)CN(C)[C@H](C)[C@@H](O)[C@]1(C)O [Pseudopolymorph Ik, 9-deoxo-9a-aza-9a-methyl-9a-homoerythromycin A Pseudopolymorph Ik]

- Cmax (clinical): 94 ng/mL
- percent dissolved ([5]; 5 minutes, listed as Commercial 9-deoxo-9a-aza-9a-methyl-9a-homoerythromycin A Dihydrate, dihydrate): 14.5%
- percent dissolved ([5]; 10 minutes, listed as Commercial 9-deoxo-9a-aza-9a-methyl-9a-homoerythromycin A Dihydrate, dihydrate): 27.3%
- percent dissolved ([5]; 20 minutes, listed as Commercial 9-deoxo-9a-aza-9a-methyl-9a-homoerythromycin A Dihydrate, dihydrate): 44.2%
- percent dissolved ([5]; 45 minutes, listed as Commercial 9-deoxo-9a-aza-9a-methyl-9a-homoerythromycin A Dihydrate, dihydrate): 69.1%
Compound: CC[C@H]1OC(=O)[C@H](C)[C@@H](O[C@H]2C[C@@](C)(OC)[C@@H](O)[C@H](C)O2)[C@H](C)[C@@H](O[C@@H]2O[C@H](C)C[C@H](N(C)C)[C@H]2O)[C@](C)(O)C[C@@H](C)CN(C)[C@H](C)[C@@H](O)[C@]1(C)O [Azithromycin Dihydrate, 9-deoxo-9a-aza-9a-methyl-9a-homoerythromycin A dihydrate]
- adverse events with a possible causal relationship ([3]; human, in vivo): 3 events
